# Legend:
# Assay type in all cases: in vivo, Sprague-Dawley rats
# STZ diabetic rats [1] = assay: Plasma total cholesterol, HDL and triglycerides; settings: 50 mg/kg/day, 5 weeks, mean ± S.E.
# Excerpt: A well-established model of streptozotocin (STZ)-induced diabetes in rats was used. Streptozotocin is a glucosamine derivative of nitrosurea which selectively destroys the β cells of the pancreatic islets and causes the development of diabetes with hyperglycemia and glycosuria. The model shares a series of characteristics with human diabetic complications at both a functional level and a biochemical level, such as, for example, a reduced nervous conduction, loss of small-diameter sensory nerve fibers in the skin, reduction in Na+ and K+-ATPase activity and early alterations of the thermal and mechanical nociceptive thresholds. In this study, diabetes was induced in 24 rats with a single intraperitoneal injection of 60 mg/kg of STZ dissolved in a sodium citrate buffer (pH 4.5). 24 rats injected only with the vehicle were used as non-diabetic controls. Hyperglycemia was confirmed by measuring glycosuria 72 hours after the injection of STZ using Keto-Diabur strips (KD-5000; Roche Diagnostics Spa, Italy). Only the animals with glycosuria >5% were classified as diabetic and included in the study. […] The animals were then randomized to receive the concentrate of the invention at an HT equivalent dose of 50 mg/kg/day or 50 mg/kg/day of pure HT in drinking water, according to the following treatment groups: The daily dose of compounds was administered starting from the 7th week after the injection of STZ or the vehicle. The treatment lasted 5 weeks and urine samples were taken. The animals were then sacrificed and the plasma, kidneys and sciatic nerves were removed. The sacrifice took place within 2 hours after the last administration of the concentrate, HT or the vehicle. At the end of the 5-week treatment period, urine and plasma were collected to measure the level of triglycerides (TG), total cholesterol (TC), high-density lipoprotein (HDL) and other parameters using commercially available diagnostic kits.
# STZ diabetic rats [2] = assay: Thiobarbituric acid reactive substances (TBARS) in plasma and kidney; settings: 50 mg/kg/day, 5 weeks, mean ± S.E.
# Excerpt: A well-established model of streptozotocin (STZ)-induced diabetes in rats was used. Streptozotocin is a glucosamine derivative of nitrosurea which selectively destroys the β cells of the pancreatic islets and causes the development of diabetes with hyperglycemia and glycosuria. The model shares a series of characteristics with human diabetic complications at both a functional level and a biochemical level, such as, for example, a reduced nervous conduction, loss of small-diameter sensory nerve fibers in the skin, reduction in Na+ and K+-ATPase activity and early alterations of the thermal and mechanical nociceptive thresholds. In this study, diabetes was induced in 24 rats with a single intraperitoneal injection of 60 mg/kg of STZ dissolved in a sodium citrate buffer (pH 4.5). 24 rats injected only with the vehicle were used as non-diabetic controls. Hyperglycemia was confirmed by measuring glycosuria 72 hours after the injection of STZ using Keto-Diabur strips (KD-5000; Roche Diagnostics Spa, Italy). Only the animals with glycosuria >5% were classified as diabetic and included in the study. […] The levels of TBARS were determined as an indicator of the production of reactive oxygen species. […] The upper phase was measured using fluorimetry, (Infinite M200; Tecan, Milan, Italy) at an excitation wavelength of 532 nm and emission wavelength of 553 nm. […]
# STZ diabetic rats [3] = assay: Eye examination and cataract classification
# Excerpt: A well-established model of streptozotocin (STZ)-induced diabetes in rats was used. Streptozotocin is a glucosamine derivative of nitrosurea which selectively destroys the β cells of the pancreatic islets and causes the development of diabetes with hyperglycemia and glycosuria. The model shares a series of characteristics with human diabetic complications at both a functional level and a biochemical level, such as, for example, a reduced nervous conduction, loss of small-diameter sensory nerve fibers in the skin, reduction in Na+ and K+-ATPase activity and early alterations of the thermal and mechanical nociceptive thresholds. In this study, diabetes was induced in 24 rats with a single intraperitoneal injection of 60 mg/kg of STZ dissolved in a sodium citrate buffer (pH 4.5). 24 rats injected only with the vehicle were used as non-diabetic controls. Hyperglycemia was confirmed by measuring glycosuria 72 hours after the injection of STZ using Keto-Diabur strips (KD-5000; Roche Diagnostics Spa, Italy). Only the animals with glycosuria >5% were classified as diabetic and included in the study. […] The animals were then randomized to receive the concentrate of the invention at an HT equivalent dose of 50 mg/kg/day or 50 mg/kg/day of pure HT in drinking water, according to the following treatment groups: The opacity of the eyes and of the crystalline lenses was examined every week starting from the seventh/eighth week after the induction of diabetes, the period in which, in the STZ diabetic model, cataracts manifest themselves. Cataract severity was classified using a validated semi-quantitative scale. In particular, the following assessment scheme and the following scores were used: [table] The opacity index was calculated to quantitatively assess the degree of opacity of the crystalline lens by means of the following formula: [formula]
# [4] = non-diabetic control rats (CTRL)
structure (smiles),measurement,setting,value
"OCCc1ccc(O)c(O)c1 [HT, hydroxytyrosol]",PLASMA HDL,STZ diabetic rats [1]; STZ diabetic rats,48.7 ± 1.6 mg/dL
same,PLASMA TC,STZ diabetic rats [1]; STZ diabetic rats,118.1 ± 3.0 mg/dL
same,PLASMA TG,STZ diabetic rats [1]; STZ diabetic rats,457.1 ± 60.7 mg/dL
same,PLASMA HDL,STZ diabetic rats [1]; [4],27.0 ± 0.4 mg/dL
same,PLASMA TC,STZ diabetic rats [1]; [4],84.4 ± 2.1 mg/dL
same,PLASMA TG,STZ diabetic rats [1]; [4],111.5 ± 8.6 mg/dL
same,PLASMA TBARS,STZ diabetic rats [2]; STZ diabetic rats,12.1 ± 1.2 nmol/mL
same,PLASMA TBARS,STZ diabetic rats [2]; [4],4.3 ± 0.5 nmol/mL
same,diabetic rats in the fourth cataract phase,"STZ diabetic rats [3]; end of the fifth week, untreated 67%",30%
same,eyes with cataracts at stage 0,"STZ diabetic rats [3]; end of the treatments, untreated none",3 eyes
same,opacity index,"STZ diabetic rats [3]; end of treatment, untreated 5.3",2.0

# From patent US20210046139A1, “VEGETATION WATERS AND USES THEREOF” (FATTORIA LA VIALLA DI GIANNI, ANTONIO E BANDINO LO FRANCO - …, priority 2018, published 2021)
